Reference: patent publication US20260184675A1, “CHIRAL ISOMERIC SULFITE COMPOUND AND APPLICATION THEREOF” (Chengdu Hanova BioSciences Co., Ltd, priority 2024, published 2026)

Experiments:
Magnaporthe grisea = format: cell-based; details: 100 ppm
eggs of Aleyrodidae = assay: Effect on hatching of eggs of Aleyrodidae, leaf disc method; format: in vivo; details: 10 ppm
Procedure, shortened: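 Leaf discs carrying Aleyrodidae eggs were first examined microscopically to record a baseline egg count. They were then dipped for 10 seconds in compound solution at 10 ppm or in clear water, taken out, and incubated with humidity maintained. Five days after delivery, the number of hatched larvae was recorded to assess hatching inhibition.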

[1] = test system: eggs of Harmonia axyridis; assay: Effect on hatching of eggs of Harmonia axyridis, egg card immersion; format: in vivo; details: 100 ppm
Procedure, shortened: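 Egg cards (~20 eggs each) dipped 30 s in 100 ppm insecticide, air dried and kept moist at 27° C; 5 cards per treatment, 3 replicates. Hatching assessed 4 days after treatment against pre-treatment egg counts, and control effect calculated by formula.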

eggs of Panonychus citri = assay: Effect on hatching of eggs of Panonychus citri, leaf disc method; format: in vivo; details: 1 ppm
[2] = test system: eggs of Spodoptera litura; assay: Effect on hatching of eggs of Spodoptera litura, egg piece soaking; format: in vivo; details: 500 ppm
Procedure, shortened: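 Egg pieces of about 60 eggs were soaked 10 min in test agent at 500 ppm, blotted, then held singly at 24±1 °C, 80±10% RH, 12:12 L:D. Hatched and unhatched eggs were counted on day 4 to give hatching rate and control effect; 3 replicates.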

CC(C)(COS(=O)OCCF)Oc1ccc(Cl)cc1Cl (stereo not drawn) [S-10′]
inhibitory rate against Magnaporthe grisea (in words) (Magnaporthe grisea): strong inhibitory rate
Average antifungal rate (%) (Magnaporthe grisea; 96-well plate, average of 3 replicates): 99.31%
Antifungal rate of Magnaporthe grisea (%), Replicate 1 (Magnaporthe grisea; 96-well plate, replicate 1): 100.03%
Antifungal rate of Magnaporthe grisea (%), Replicate 2 (Magnaporthe grisea; 96-well plate, replicate 2): 99.64%
Antifungal rate of Magnaporthe grisea (%), Replicate 3 (Magnaporthe grisea; 96-well plate, replicate 3): 98.27%
inhibitory activity on the hatching of eggs of Aleyrodidae (in words) (eggs of Aleyrodidae): strong inhibitory activities
Hatching rate (%), Replicate 1 (eggs of Aleyrodidae; Aleyrodidae eggs, 5 days after delivery, replicate 1): 0.00%
Hatching rate (%), Replicate 2 (eggs of Aleyrodidae; Aleyrodidae eggs, 5 days after delivery, replicate 2): 0.00%
Hatching rate (%), Replicate 3 (eggs of Aleyrodidae; Aleyrodidae eggs, 5 days after delivery, replicate 3): 0.00%
Number of hatched larvae 5 days after insecticide delivery, Replicate 1 (eggs of Aleyrodidae; Aleyrodidae eggs, leaf disc, replicate 1): 0
Number of hatched larvae 5 days after insecticide delivery, Replicate 2 (eggs of Aleyrodidae; Aleyrodidae eggs, leaf disc, replicate 2): 0
Number of hatched larvae 5 days after insecticide delivery, Replicate 3 (eggs of Aleyrodidae; Aleyrodidae eggs, leaf disc, replicate 3): 0
inhibitory activity on the hatching of eggs of Harmonia axyridis (in words) [1]: strong inhibitory activities
Number of hatched larvae 4 days after insecticide delivery, Replicate 1 ([1]; Harmonia axyridis egg cards, immersed 30 seconds, replicate 1): 0
Number of hatched larvae 4 days after insecticide delivery, Replicate 2 ([1]; Harmonia axyridis egg cards, immersed 30 seconds, replicate 2): 0
Number of hatched larvae 4 days after insecticide delivery, Replicate 3 ([1]; Harmonia axyridis egg cards, immersed 30 seconds, replicate 3): 0
Hatching rate (%), Replicate 1 ([1]; Harmonia axyridis eggs, 4 days after delivery, replicate 1): 0.00%
Hatching rate (%), Replicate 2 ([1]; Harmonia axyridis eggs, 4 days after delivery, replicate 2): 0.00%
Hatching rate (%), Replicate 3 ([1]; Harmonia axyridis eggs, 4 days after delivery, replicate 3): 0.00%
inhibitory effect on the hatching of eggs of Panonychus citri (in words) (eggs of Panonychus citri): good inhibitory effects
Hatching rate (%), Replicate 1 (eggs of Panonychus citri; Panonychus citri eggs, 5 days after delivery, replicate 1): 0.00%
Hatching rate (%), Replicate 2 (eggs of Panonychus citri; Panonychus citri eggs, 5 days after delivery, replicate 2): 0.00%
Hatching rate (%), Replicate 3 (eggs of Panonychus citri; Panonychus citri eggs, 5 days after delivery, replicate 3): 0.00%
Number of hatched larvae 5 days after insecticide delivery, Replicate 1 (eggs of Panonychus citri; Panonychus citri eggs, leaf disc, replicate 1): 0
Number of hatched larvae 5 days after insecticide delivery, Replicate 2 (eggs of Panonychus citri; Panonychus citri eggs, leaf disc, replicate 2): 0
Number of hatched larvae 5 days after insecticide delivery, Replicate 3 (eggs of Panonychus citri; Panonychus citri eggs, leaf disc, replicate 3): 0
inhibitory activity on the hatching of eggs of Spodoptera litura (in words) [2]: good inhibitory activities
Hatching rate (%), Replicate 1 ([2]; Spodoptera litura eggs, 4 days after delivery, replicate 1): 22.03%
Hatching rate (%), Replicate 2 ([2]; Spodoptera litura eggs, 4 days after delivery, replicate 2): 21.88%
Hatching rate (%), Replicate 3 ([2]; Spodoptera litura eggs, 4 days after delivery, replicate 3): 21.67%
Number of unhatched larvae 4 days after insecticide delivery, Replicate 1 ([2]; Spodoptera litura eggs, soaked 10 minutes, replicate 1): 46
Number of unhatched larvae 4 days after insecticide delivery, Replicate 2 ([2]; Spodoptera litura eggs, soaked 10 minutes, replicate 2): 50
Number of unhatched larvae 4 days after insecticide delivery, Replicate 3 ([2]; Spodoptera litura eggs, soaked 10 minutes, replicate 3): 47
